Here are results for two molecules from ChEMBL document CHEMBL5696442, “Discovery of type II inhibitors of TGFβ-activated kinase 1 (TAK1) and mitogen-activated protein kinase kinase kinase kinase 2 (MAP4K2)” (J Med Chem, 2015).

As a reminder, the inhibition is the drop in the measured response relative to a control, in per cent.

A value given as a limit tells only on which side of the number the result lay.

Holding throughout (format): cell-based
The target in test [1] is Tyrosine-protein kinase Yes (Homo sapiens) (UniProt P07947). As to the kind of experiment: Inhibition of YES ACT labeling site in human A-375 cells at 5 uM by KiNativ Profiling analysis relative to control.
The target in test [2] is Tyrosine-protein kinase JAK1 (Homo sapiens) (UniProt P23458). As to the kind of experiment: Inhibition of JAK1 domain2 Lys1 labeling site in human A-375 cells at 5 uM by KiNativ Profiling analysis relative to control.
In test [3] the target is T1, Serine/threonine-protein kinase TAO2 (Homo sapiens) (UniProt Q9UL54).
T1 sequence (whole entry): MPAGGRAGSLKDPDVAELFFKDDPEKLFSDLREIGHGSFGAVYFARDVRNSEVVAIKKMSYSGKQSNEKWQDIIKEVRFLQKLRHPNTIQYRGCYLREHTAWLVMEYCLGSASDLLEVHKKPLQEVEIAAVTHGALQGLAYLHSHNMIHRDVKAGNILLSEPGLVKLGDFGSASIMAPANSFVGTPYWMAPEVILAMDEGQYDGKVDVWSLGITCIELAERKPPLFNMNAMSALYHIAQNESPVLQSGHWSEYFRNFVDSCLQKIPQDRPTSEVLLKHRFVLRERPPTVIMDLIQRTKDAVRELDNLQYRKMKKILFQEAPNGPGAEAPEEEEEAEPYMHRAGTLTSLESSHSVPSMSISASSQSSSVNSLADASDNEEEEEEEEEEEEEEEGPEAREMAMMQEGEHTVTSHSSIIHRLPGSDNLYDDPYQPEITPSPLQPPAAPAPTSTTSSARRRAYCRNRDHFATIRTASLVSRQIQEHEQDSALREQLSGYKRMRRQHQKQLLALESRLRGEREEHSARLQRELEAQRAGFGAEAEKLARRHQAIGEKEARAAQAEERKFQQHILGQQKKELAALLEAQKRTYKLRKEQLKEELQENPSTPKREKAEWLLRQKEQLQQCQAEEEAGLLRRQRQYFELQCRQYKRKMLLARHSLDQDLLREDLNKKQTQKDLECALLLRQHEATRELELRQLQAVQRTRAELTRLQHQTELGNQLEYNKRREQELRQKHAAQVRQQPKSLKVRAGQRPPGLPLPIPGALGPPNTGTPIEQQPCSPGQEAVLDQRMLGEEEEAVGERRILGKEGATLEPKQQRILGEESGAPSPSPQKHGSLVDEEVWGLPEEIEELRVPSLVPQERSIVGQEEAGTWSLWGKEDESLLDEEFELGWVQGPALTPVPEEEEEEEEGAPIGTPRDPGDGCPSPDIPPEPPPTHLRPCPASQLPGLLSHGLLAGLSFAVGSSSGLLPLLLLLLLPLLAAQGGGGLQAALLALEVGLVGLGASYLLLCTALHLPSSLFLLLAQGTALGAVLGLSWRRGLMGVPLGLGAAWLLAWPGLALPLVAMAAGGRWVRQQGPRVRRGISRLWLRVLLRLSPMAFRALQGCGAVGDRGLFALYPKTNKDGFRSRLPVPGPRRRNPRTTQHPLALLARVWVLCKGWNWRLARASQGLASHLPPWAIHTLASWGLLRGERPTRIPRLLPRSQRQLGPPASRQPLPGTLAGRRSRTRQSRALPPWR
As to the kind of experiment: Inhibition of TAO2 Lys2 labeling site in human A-375 cells at 5 uM by KiNativ Profiling analysis relative to control.

Test [4] has as its target T2, Inhibitor of nuclear factor kappa-B kinase subunit epsilon (Homo sapiens) (UniProt Q14164).
T2 sequence (whole entry): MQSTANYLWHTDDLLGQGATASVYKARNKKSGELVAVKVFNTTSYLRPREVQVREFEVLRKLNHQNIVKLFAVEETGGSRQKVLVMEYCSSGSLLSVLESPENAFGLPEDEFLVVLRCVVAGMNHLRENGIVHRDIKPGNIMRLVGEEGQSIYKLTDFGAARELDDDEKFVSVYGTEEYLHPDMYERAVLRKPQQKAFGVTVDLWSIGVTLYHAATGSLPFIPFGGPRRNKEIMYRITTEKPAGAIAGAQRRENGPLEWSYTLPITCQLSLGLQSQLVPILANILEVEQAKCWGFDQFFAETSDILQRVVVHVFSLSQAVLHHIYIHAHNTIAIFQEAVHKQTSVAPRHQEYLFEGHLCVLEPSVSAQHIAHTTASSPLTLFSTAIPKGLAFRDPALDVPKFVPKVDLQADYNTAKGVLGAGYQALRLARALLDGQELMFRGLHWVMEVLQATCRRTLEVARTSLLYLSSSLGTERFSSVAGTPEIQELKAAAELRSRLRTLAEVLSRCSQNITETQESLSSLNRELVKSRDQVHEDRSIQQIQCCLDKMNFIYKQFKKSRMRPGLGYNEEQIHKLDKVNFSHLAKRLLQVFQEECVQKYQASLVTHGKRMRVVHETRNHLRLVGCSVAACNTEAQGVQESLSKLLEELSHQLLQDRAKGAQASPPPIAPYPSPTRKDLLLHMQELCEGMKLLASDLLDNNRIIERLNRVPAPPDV
As to the kind of experiment: Inhibition of IKKe Lys2 labeling site in human A-375 cells at 0.5 uM by KiNativ Profiling analysis relative to control.

Test [5] addresses T3, Dual specificity mitogen-activated protein kinase kinase 5 (Homo sapiens) (UniProt Q13163).
T3 sequence (whole entry): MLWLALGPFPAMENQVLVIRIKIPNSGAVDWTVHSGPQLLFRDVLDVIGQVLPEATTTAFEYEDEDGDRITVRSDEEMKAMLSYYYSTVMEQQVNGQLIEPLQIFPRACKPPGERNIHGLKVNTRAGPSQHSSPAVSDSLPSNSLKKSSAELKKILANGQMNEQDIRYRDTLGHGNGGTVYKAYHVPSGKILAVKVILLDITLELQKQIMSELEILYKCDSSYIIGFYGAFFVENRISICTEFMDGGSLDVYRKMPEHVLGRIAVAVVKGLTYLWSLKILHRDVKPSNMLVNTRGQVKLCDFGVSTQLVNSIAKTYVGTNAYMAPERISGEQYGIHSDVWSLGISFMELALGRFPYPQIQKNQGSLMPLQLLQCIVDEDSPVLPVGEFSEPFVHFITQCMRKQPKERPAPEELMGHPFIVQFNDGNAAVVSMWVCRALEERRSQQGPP
Put plainly: Inhibition of MAP2K5 Lys2 labeling site in human A-375 cells at 0.05 uM by KiNativ Profiling analysis relative to control.

Tyrosine-protein kinase Yes (Homo sapiens), sequence (P07947 2-543 limits assumed): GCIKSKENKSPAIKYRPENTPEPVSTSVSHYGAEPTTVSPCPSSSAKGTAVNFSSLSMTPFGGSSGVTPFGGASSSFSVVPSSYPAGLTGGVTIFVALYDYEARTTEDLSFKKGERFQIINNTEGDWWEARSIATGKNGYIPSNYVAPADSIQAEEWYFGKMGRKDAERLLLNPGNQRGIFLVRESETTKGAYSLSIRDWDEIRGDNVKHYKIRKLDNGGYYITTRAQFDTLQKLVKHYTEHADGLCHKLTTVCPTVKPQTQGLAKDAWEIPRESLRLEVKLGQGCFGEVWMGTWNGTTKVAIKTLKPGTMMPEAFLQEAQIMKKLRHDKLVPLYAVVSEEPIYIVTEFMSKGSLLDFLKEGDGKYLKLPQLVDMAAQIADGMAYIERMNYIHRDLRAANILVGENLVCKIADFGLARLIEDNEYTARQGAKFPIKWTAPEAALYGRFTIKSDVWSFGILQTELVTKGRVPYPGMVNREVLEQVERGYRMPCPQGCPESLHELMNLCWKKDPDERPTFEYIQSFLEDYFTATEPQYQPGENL
Tyrosine-protein kinase JAK1 (Homo sapiens), sequence (P23458 whole entry, the tested form may be a part): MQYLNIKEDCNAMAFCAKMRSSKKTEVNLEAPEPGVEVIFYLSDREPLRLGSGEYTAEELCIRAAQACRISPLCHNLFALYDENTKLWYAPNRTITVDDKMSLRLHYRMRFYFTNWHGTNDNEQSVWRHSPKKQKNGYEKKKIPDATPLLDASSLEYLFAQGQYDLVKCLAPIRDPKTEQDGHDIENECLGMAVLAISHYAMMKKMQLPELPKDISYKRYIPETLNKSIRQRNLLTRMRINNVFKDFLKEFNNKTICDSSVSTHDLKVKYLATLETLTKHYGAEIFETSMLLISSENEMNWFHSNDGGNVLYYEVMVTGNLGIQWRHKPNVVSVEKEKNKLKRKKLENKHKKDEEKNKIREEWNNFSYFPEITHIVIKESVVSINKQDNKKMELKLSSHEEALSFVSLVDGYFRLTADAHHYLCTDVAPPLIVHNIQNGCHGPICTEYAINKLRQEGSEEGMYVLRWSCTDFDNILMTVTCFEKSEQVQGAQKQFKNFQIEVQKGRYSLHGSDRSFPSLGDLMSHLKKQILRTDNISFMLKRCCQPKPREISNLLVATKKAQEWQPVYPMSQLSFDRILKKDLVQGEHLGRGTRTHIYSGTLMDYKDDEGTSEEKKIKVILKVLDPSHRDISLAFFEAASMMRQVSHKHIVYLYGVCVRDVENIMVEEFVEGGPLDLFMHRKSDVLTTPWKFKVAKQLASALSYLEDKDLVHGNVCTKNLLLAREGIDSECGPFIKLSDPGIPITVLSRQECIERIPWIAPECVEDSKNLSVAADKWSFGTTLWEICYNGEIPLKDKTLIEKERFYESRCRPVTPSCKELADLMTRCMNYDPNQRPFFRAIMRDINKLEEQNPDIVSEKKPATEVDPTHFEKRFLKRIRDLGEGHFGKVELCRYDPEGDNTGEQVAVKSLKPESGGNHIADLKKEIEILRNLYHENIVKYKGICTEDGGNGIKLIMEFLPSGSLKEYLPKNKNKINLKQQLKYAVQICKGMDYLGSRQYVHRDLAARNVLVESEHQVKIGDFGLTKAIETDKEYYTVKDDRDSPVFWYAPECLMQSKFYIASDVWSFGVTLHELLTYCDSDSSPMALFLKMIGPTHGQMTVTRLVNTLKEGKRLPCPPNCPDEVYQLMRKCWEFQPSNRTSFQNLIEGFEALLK

With `CCN1CCN(Cc2ccc(NC(=O)c3ccc(C)c(/C=C/c4cnc5[nH]ccc5c4OC)c3)cc2C(F)(F)F)CC1`, the inhibition in test [1] was greater than 99%; in test [2] it was 73.4%; in test [3] it was 82.2%; in test [4], 16.9%; in test [5] it was -5.6%.
In the same order, the values of `CCN1CCN(Cc2ccc(NC(=O)c3ccc(C)c(Oc4ccnc5[nH]ccc45)c3)cc2C(F)(F)F)CC1` are 89.6%, 97.6%, 82.5%, 35.7% and 19.1%.
